Earlier results, collected in patent publication US11608532B2, “Precision medicine for treating and preventing suicidality” (Indiana University Research and Technology Corporation, priority 2017, dated 2023).
Where two headings read alike, the source gives them in different places.

Key:
[1] = test system: individual top biomarkers for suicidality; details: for HTR2A modulated by drug in opposite direction to suicide: DE/2
[2] = test system: top male bipolar biomarkers for suicidality
[3] = test system: BioM50 panel biomarkers
[4] = biomarker HTR2A (5-hydroxytryptamine (serotonin) receptor 2A, G protein-coupled)
[5] = HTR2A, 244130_at, (I) in suicidality, male bipolars
[6] = A. Top Universal Biomarkers, direction of change in suicidality (I)
[7] = C. Top Biomarkers in Females, direction of change in suicidality I
[8] = D. Top Biomarkers in Bipolar Disorder, direction of change in suicidality (I)
[9] = F. Top Biomarkers in Males with Bipolar Disorder, direction of change in suicidality (I)

Compound: Cc1nc2n(c(=O)c1CCN1CCC(c3noc4cc(F)ccc34)CC1)CCCC2 [Risperidone]
- IFNG modulated by drug in opposite direction to suicide ([1]; A. Top Universal Biomarkers, direction of change in suicidality (D), AP/1): Risperidone,
- Step 6 Drugs that Modulate the Biomarker in Opposite Direction to Suicide [1, 4]: Risperidone
- Drugs that Modulate the Biomarker in Opposite Direction to Suicide [2, 5]: Risperidone

Compound: CN1C(=O)CN=C(c2ccccc2)c2cc(Cl)ccc21 [Diazepam]
- Step 6 Drugs that Modulate the Biomarker in Opposite Direction to Suicide ([1]; biomarker AKAP13 (A kinase (PRKA) anchor protein 13)): Diazepam
- Step 6 Drugs that Modulate the Biomarker in Opposite Direction to Suicide ([1]; biomarker PGK1 (phosphoglycerate kinase 1)): Diazepam
- Step 6 Drugs that Modulate the Biomarker in Opposite Direction to Suicide ([1]; biomarker PSMB4): Diazepam
- Drugs that modulate the biomarker SPTBN1 ([1]; biomarker SPTBN1 (spectrin, beta, non-erythrocytic 1), Table 20 CFE drug-evidence): Diazepam
- Drugs that Modulate the Biomarker in Opposite Direction to Suicide ([2]; SPTBN1, 215918_s_at, (I) in suicidality, male bipolars): Diazepam

Compound: CCCC(CCC)C(=O)O [Valproate]
- SLC4A4 modulated by drug in opposite direction to suicide ([1]; A. Top Universal Biomarkers, direction of change in suicidality (I), AP/1): Valproate
- HTR2A modulated by drug in opposite direction to suicide [1, 6]: Valproate
- SLC4A4 modulated by drug in opposite direction to suicide ([1]; B. Top Biomarkers in Males, direction of change in suicidality I, AP/2): Valproate
- TPR modulated by drug in opposite direction to suicide ([1]; C. Top Biomarkers in Females, direction of change in suicidality D, AP/4): Valproate
- HTR2A modulated by drug in opposite direction to suicide [1, 7]: Valproate
- HTR2A modulated by drug in opposite direction to suicide [1, 8]: Valproate
- TSPYL1 modulated by drug in opposite direction to suicide ([1]; E. Top Biomarkers in Depression, direction of change in suicidality (D), AP/1): Valproate
- GLIPR1 modulated by drug in opposite direction to suicide ([1]; E. Top Biomarkers in Depression, direction of change in suicidality (D), DE/1): Valproate
- HTR2A modulated by drug in opposite direction to suicide [1, 9]: Valproate
- TSPYL1 modulated by drug in opposite direction to suicide ([1]; G. Top Biomarkers in Males with Depression, direction of change in suicidality D, AP/1): Valproate
- Step 6 Drugs that Modulate the Biomarker in Opposite Direction to Suicide ([1]; biomarker CTTN (cortactin)): Valproate
- Step 6 Drugs that Modulate the Biomarker in Opposite Direction to Suicide [1, 4]: Valproate
- Step 6 Drugs that Modulate the Biomarker in Opposite Direction to Suicide ([1]; biomarker PKP4 (plakophilin 4)): Valproate
- Step 6 Drugs that Modulate the Biomarker in Opposite Direction to Suicide ([1]; biomarker PRKAR2B): Valproate
- Drugs that modulate the biomarker RBM3 ([1]; biomarker RBM3 (RNA binding motif (RNP1, RRM) protein 3), Table 20 CFE drug-evidence): Valproate
- Step 6 Drugs that Modulate the Biomarker in Opposite Direction to Suicide ([1]; biomarker SLC4A4): Valproate
- known drugs or classes of drugs that have an opposite effect to suicidality on the biomarker's direction of change (pharmacogenomics) ([3]; biomarker BCL2 (B-cell CLL/lymphoma 2)): Valproate
- Matching to Treatments (Pharmacogenomics) Drugs that Modulate the Biomarker in opposite Direction to Suicide ([3]; biomarker NR3C1, probeset 201866_s_at, (D) decreased in high suicidal ideation): Valproate
- Matching to Treatments (Pharmacogenomics) Drugs that Modulate the Biomarker in opposite Direction to Suicide ([3]; biomarker PRKAR2B, probeset 203680_at, (D) decreased in high suicidal ideation): Valproate
- Drugs that Modulate the Biomarker in Opposite Direction to Suicide [2, 5]: Valproate

Compound: CN1CCN2c3ncccc3Cc3ccccc3C2C1 (centres unmarked) [mirtazapine]
- HTR2A modulated by drug in opposite direction to suicide [1, 6]: mirtazapine,
- HTR2A modulated by drug in opposite direction to suicide [1, 7]: mirtazapine,
- HTR2A modulated by drug in opposite direction to suicide [1, 8]: mirtazapine,
- HTR2A modulated by drug in opposite direction to suicide [1, 9]: mirtazapine,
- Drugs that Modulate the Biomarker in Opposite Direction to Suicide [2, 5]: mirtazapine

Compound: CN1C[C@H](C(=O)N[C@]2(C)O[C@@]3(O)[C@@H]4CCCN4C(=O)[C@H](Cc4ccccc4)N3C2=O)C=C2c3cccc4[nH]cc(c34)C[C@H]21 [ergotamine]
- Drugs that Modulate the Biomarker in Opposite Direction to Suicide [2, 5]: ergotamine

Compound: O=C1NCCN1CCN1CCC(c2cn(-c3ccc(F)cc3)c3ccc(Cl)cc23)CC1 [sertindole]
- Drugs that Modulate the Biomarker in Opposite Direction to Suicide [2, 5]: sertindole

Compound: CN(C)CCC=C1c2ccccc2CCc2ccccc21 [amitriptyline]
- Drugs that Modulate the Biomarker in Opposite Direction to Suicide [2, 5]: amitriptyline

Compound: Cc1nc2n(c(=O)c1CCN1CCC(c3noc4cc(F)ccc34)CC1)CCCC2O (centres unmarked) [Paliperidone]
- HTR2A modulated by drug in opposite direction to suicide [1, 6]: Paliperidone,
- HTR2A modulated by drug in opposite direction to suicide [1, 7]: Paliperidone,
- HTR2A modulated by drug in opposite direction to suicide [1, 8]: Paliperidone,
- HTR2A modulated by drug in opposite direction to suicide [1, 9]: Paliperidone,
- Step 6 Drugs that Modulate the Biomarker in Opposite Direction to Suicide [1, 4]: Paliperidone,
- Drugs that Modulate the Biomarker in Opposite Direction to Suicide [2, 5]: Paliperidone

Compound: CN[C@@H](C)Cc1ccccc1 [Methamphetamine]
- Drugs that Modulate the Biomarker in Opposite Direction to Suicide ([2]; CRYAB, 209283_at, (I) in suicidality, male bipolars): Methamphetamine

Compound: O=C1CCc2ccc(OCCCCN3CCN(c4cccc(Cl)c4Cl)CC3)cc2N1 [aripiprazole]
- Drugs that Modulate the Biomarker in Opposite Direction to Suicide [2, 5]: aripiprazole

Compound: CN1C[C@H](C(=O)N[C@]2(C)O[C@@]3(O)[C@@H]4CCCN4C(=O)[C@H](Cc4ccccc4)N3C2=O)C[C@@H]2c3cccc4[nH]cc(c34)C[C@H]21 [dihydroergotamine]
- Drugs that Modulate the Biomarker in Opposite Direction to Suicide [2, 5]: dihydroergotamine

Compound: CSc1ccc2c(c1)N(CCC1CCCCN1C)c1ccccc1S2 (centres unmarked) [thioridazine]
- Drugs that Modulate the Biomarker in Opposite Direction to Suicide [2, 5]: thioridazine

Compound: CCO [Alcohol]
- Drugs that Modulate the Biomarker in Opposite Direction to Suicide (direction of change by drug) [2]: (D) and (I)

Compound: omega-3 fatty acids [reference compound]
- Matching to Treatments (Pharmacogenomics) Drugs that Modulate the Biomarker in opposite Direction to Suicide [3]: Omega-3
- Drugs that Modulate the Biomarker in Opposite Direction to Suicide [2]: Omega-3
- Drugs that Modulate the Biomarker in Opposite Direction to Suicide (direction of change by drug) [2]: (I)
